Measurements reported in ChEMBL document CHEMBL3286163, “The pterocarpanquinone LQB-118 inhibits tumor cell proliferation by downregulation of c-Myc and cyclins D1 and B1 mRNA and upregulation of p21 cell cycle inhibitor expression” (Bioorg Med Chem, 2014).
In brackets after ≈: the same amount, converted by molar mass. Activity calls are given as the source filed them. The calls are words filed in the database; no cut-off is given here.

Tests used:
PC-3 [1] = assay: Cell cycle arrest in human PC3 cells assessed as cell accumulation at G1 phase at 5 ug/ml after 48 hrs by propidium idoide staining based flow cytometry (reference value: 68%); assay type: functional
[2] = Cytotoxicity against human RWPE1 cells assessed as inhibition of cell viability after 48 hrs by MTT assay; assay type: cell-based, RWPE-1; settings: for IC50: Homo sapiens, RWPE-1, 48 h
PC-3 [3] = assay: Induction of apoptosis in human PC3 cells assessed as proportion of necrotic cells at 5 ug/ml after 48 hrs by annexin-V-FITC/propidium iodide staining based flow cytometry (reference value: 0.8 +/- 0.9%); assay type: functional
PC-3 [4] = assay: Cell cycle arrest in human PC3 cells assessed as cell accumulation at G1 phase at 1.7 ug/ml after 48 hrs by propidium idoide staining based flow cytometry (reference value: 68%); assay type: functional
LNCaP = assay: Cytotoxicity against human LNCAP cells assessed as inhibition of cell viability after 48 hrs by MTT assay; assay type: functional, cell-based
PC-3 [5] = assay: Induction of apoptosis in human PC3 cells assessed as proportion of necrotic cells at 1.7 ug/ml after 48 hrs by annexin-V-FITC/propidium iodide staining based flow cytometry (reference value: 0.8 +/- 0.9%); assay type: functional
PC-3 [6] = assay: Induction of apoptosis in human PC3 cells assessed as internucleosomal DNA fragmentation at 5 ug/ml after 48 hrs by agarose gel electrophoresis; assay type: functional, cell-based
PC-3 [7] = assay: Induction of apoptosis in human PC3 cells assessed as proportion of early apoptotic cells at 5 ug/ml after 48 hrs by annexin-V-FITC/propidium iodide staining based flow cytometry (reference value: 6.7 +/- 2%); assay type: functional
PC-3 [8] = assay: Increase in p21 mRNA expression in human PC3 cells at 5 ug/ml after 24 to 48 hrs by RT-PCR analysis; assay type: functional, cell-based
PC-3 [9] = assay: Cell cycle arrest in human PC3 cells assessed as cell accumulation at S phase at 5 ug/ml after 48 hrs by propidium idoide staining based flow cytometry (reference value: 9.8%); assay type: functional
PC-3 [10] = assay: Decrease in cyclin B1 mRNA expression in human PC3 cells after 48 hrs by RT-PCR analysis; assay type: functional
PC-3 [11] = assay: Cell cycle arrest in human PC3 cells assessed as cell accumulation at G2/M phase at 5 ug/ml after 48 hrs by propidium idoide staining based flow cytometry (reference value: 22.2%); assay type: functional
PC-3 [12] = assay: Cell cycle arrest in human PC3 cells assessed as cell accumulation at S phase at 1.7 ug/ml after 48 hrs by propidium idoide staining based flow cytometry (reference value: 9.8%); assay type: functional
PC-3 [13] = assay: Induction of apoptosis in human PC3 cells assessed as proportion of early apoptotic cells at 1.7 ug/ml after 48 hrs by annexin-V-FITC/propidium iodide staining based flow cytometry (reference value: 6.7 +/- 2%); assay type: functional
PC-3 [14] = assay: Increase in p21 protein expression in human PC3 cells at 5 ug/ml after 48 hrs by flow cytometry; assay type: functional, cell-based
PC-3 [15] = assay: Cytotoxicity against human PC3 cells assessed as inhibition of cell viability after 48 hrs by MTT assay; assay type: functional, cell-based; settings: for IC50: PC-3, 48 h
PC-3 [16] = assay: Increase in c-Myc mRNA expression in human PC3 cells after 48 hrs by RT-PCR analysis; assay type: functional
PC-3 [17] = assay: Induction of apoptosis in human PC3 cells assessed as proportion of late apoptotic cells at 5 ug/ml after 48 hrs by annexin-V-FITC/propidium iodide staining based flow cytometry (reference value: 6.6 +/- 1.2%); assay type: functional
PC-3 [18] = assay: Cell cycle arrest in human PC3 cells assessed as cell accumulation at G2/M phase at 1.7 ug/ml after 48 hrs by propidium idoide staining based flow cytometry (reference value: 22.2%); assay type: functional
PC-3 [19] = assay: Decrease in cyclin D1 mRNA expression in human PC3 cells after 48 hrs by RT-PCR analysis; assay type: functional
PC-3 [20] = assay: Induction of apoptosis in human PC3 cells assessed as proportion of late apoptotic cells at 1.7 ug/ml after 48 hrs by annexin-V-FITC/propidium iodide staining based flow cytometry (reference value: 6.6 +/- 1.2%); assay type: functional
PC-3 [21] = assay: Decrease in cyclin D1 mRNA expression in human PC3 cells after 24 hrs by RT-PCR analysis; assay type: functional
PC-3 [22] = assay: Increase in p21 protein expression in human PC3 cells at 5 ug/ml after 24 to 48 hrs by flow cytometry; assay type: functional, cell-based
PC-3 [23] = assay: Antiproliferative activity against human PC3 cells assessed as inhibition of cell growth at 5 ug/ml after 48 hrs by trypan blue dye exclusion assay; assay type: functional; settings: PC-3, 48 h, read-out: GI
PC-3 [24] = assay: Antiproliferative activity against human PC3 cells assessed as inhibition of cell growth at 5 ug/ml after 72 hrs by trypan blue dye exclusion assay; assay type: functional; settings: PC-3, 72 h, read-out: GI
PC-3 [25] = assay: Decrease in c-Myc mRNA expression in human PC3 cells after 48 hrs by RT-PCR analysis; assay type: functional
[26] = Cytotoxicity against human RWPE1 cells assessed as inhibition of cell viability at 2.5 ug/ml after 48 hrs by MTT assay; assay type: cell-based; settings: rwpe-1, 48 h
PC-3 [27] = assay: Antiproliferative activity against human PC3 cells assessed as inhibition of cell growth at 1.7 ug/ml after 72 hrs by trypan blue dye exclusion assay; assay type: functional; settings: PC-3, 72 h, read-out: GI
PC-3 [28] = assay: Antiproliferative activity against human PC3 cells assessed as inhibition of cell growth at 1.7 ug/ml after 48 hrs by trypan blue dye exclusion assay; assay type: functional; settings: PC-3, 48 h, read-out: GI
PC-3 [29] = assay: Cytotoxicity against human PC3 cells assessed as inhibition of cell viability at 1 ug/ml after 48 hrs by MTT assay; assay type: functional; settings: PC-3, 48 h
PC-3 [30] = assay: Decrease in cyclin B1 mRNA expression in human PC3 cells after 24 hrs by RT-PCR analysis; assay type: functional
PC-3 [31] = assay: Antiproliferative activity against human PC3 cells assessed as inhibition of cell growth at 5 ug/ml after 24 hrs by trypan blue dye exclusion assay; assay type: functional; settings: PC-3, 24 h, read-out: GI
PC-3 [32] = assay: Antiproliferative activity against human PC3 cells assessed as inhibition of cell growth at 1.7 ug/ml after 24 hrs by trypan blue dye exclusion assay; assay type: functional; settings: PC-3, 24 h, read-out: GI
PC-3 [33] = assay: Cytotoxicity against human PC3 cells assessed as inhibition of cell viability at 10 ug/ml after 48 hrs by MTT assay; assay type: functional; settings: PC-3, 48 h
Thymocyte = assay: Induction of apoptosis in mouse thymocytes assessed as internucleosomal DNA fragmentation at 1 uM after 24 hrs by agarose gel electrophoresis; assay type: functional, cell-based

SMILES | Activity (PC-3 [1]) | IC50 [2] | Activity (PC-3 [3]) | Activity (PC-3 [4]) | IC50 (LNCaP) | Activity (PC-3 [5]) | Activity (PC-3 [6]) | Activity (PC-3 [7]) | Activity (PC-3 [8]) | Activity (PC-3 [9]) | inhibition (INH) (PC-3 [10]) | Activity (PC-3 [11]) | Activity (PC-3 [12]) | Activity (PC-3 [13]) | IC50 (PC-3 [15]) | Activity (PC-3 [17]) | Activity (PC-3 [18]) | inhibition (INH) (PC-3 [19]) | Activity (PC-3 [20]) | also measured
CC(=O)O[C@H]1C(=O)[C@@]2(C)[C@H]([C@H](OC(=O)c3ccccc3)[C@]3(O)C[C@H](OC(=O)[C@H](O)[C@@H](NC(=O)c4ccccc4)c4ccccc4)C(C)=C1C3(C)C)[C@]1(OC(C)=O)CO[C@@H]1C[C@@H]2O [PACLITAXEL] | 15% | 0.7 µg/mL (≈ 0.82 µM) | 1.9% | 25% | 1.7 µg/mL (≈ 1.99 µM) | 0.6% | Active | 18.1% | Active | 5.8% | 44% | 79.2% | 13% | 21.1% | 2.9 µg/mL (≈ 3.4 µM) | 18.4% | 62% | 48% | 14.7% | Activity (PC-3 [14]): Active; Activity (PC-3 [16]): 39%
O=C1C2=C(C(=O)c3ccccc31)[C@H]1Oc3ccccc3[C@H]1CO2 [PTEROCARPANQUINONE] | 34.1% | 1.3 µg/mL (≈ 4.27 µM) | 1.6% | 51.8% | 1.1 µg/mL (≈ 3.61 µM) | 0.6% | Active | 48.3% | Active | 22.5% | 43% | 43.4% | 13.2% | 7.7% | 1.7 µg/mL (≈ 5.59 µM) | 17.8% | 35% | 59% | 5.7% | inhibition (INH) (PC-3 [21]): 27%; Activity (PC-3 [22]): Active; inhibition (INH) ([2]; human, rwpe-1, 48 h): Dose-dependent effect; inhibition of growth at 5 µg/mL (PC-3 [23]): 88%; inhibition of growth at 5 µg/mL (PC-3 [24]): 93%; inhibition (INH) (PC-3 [25]): 60%; Activity [26]: Non-toxic; inhibition of growth at 1.7 µg/mL (PC-3 [27]): 60%; inhibition of growth at 1.7 µg/mL (PC-3 [28]): 68%; inhibition at 1 µg/mL (PC-3 [29]): 12.8%; inhibition (PC-3 [15]): Dose-dependent effect; inhibition (INH) (PC-3 [30]): 58%; inhibition of growth at 5 µg/mL (PC-3 [31]): 78%; inhibition of growth at 1.7 µg/mL (PC-3 [32]): 60%; inhibition at 10 µg/mL (PC-3 [33]): 92.7%
C[C@@H]1C[C@H]2[C@@H]3CCC4=CC(=O)C=C[C@]4(C)[C@@]3(F)[C@@H](O)C[C@]2(C)[C@@]1(O)C(=O)CO | – | – | – | – | – | – | – | – | – | – | – | – | – | – | – | – | – | – | – | Activity (Thymocyte): Active
